Columns and labels:
[1] = test system: cultured human mast cells (CHMC); test: CHMC low cell density ionomycin activation: tryptase assay; type: cell-based
[2] = test system: cultured human mast cells (CHMC); test: CHMC low cell density IgE activation: tryptase assay; type: cell-based; details: anti-IgE
How it was run: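 Supernatant tryptase activity, assayed with substrate for 30 min at room temperature, served as the degranulation measure. Mast cells (1000-1500 per well depending on donor) sat 1 hr at 37° C in MT before a 30 min anti-IgE challenge at 37° C.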

CCOC(=O)C(C)Oc1ccc(Nc2ncc(C)c(Nc3ccc(OC(C)C(=O)OCC)cc3)n2)cc1 (racemic) [R926259, (±)-N2,N4-Bis[4-ethoxycarbonyl(alpha-methyl)methyleneoxyphenyl]-5-methyl-2,4-pyrimidinediamine]
IC50 [1]: 6.2 µM
IC50 [2]: 2.5 µM

COC(=O)C1Cc2cc(Nc3ncc(F)c(Nc4cccc(C(F)(F)F)c4)n3)ccc2O1 (racemic) [R927028, (±)-N2-(2,3-Dihydro-2-methoxycarbonylbenzofuran-5-yl)-5-fluoro-N4-(3-trifluorophenyl)-2,4-pyrimidinediamine]
IC50 [1]: > 10 µM
IC50 [2]: 0.208 µM

CNC(=O)C1Cc2cc(Nc3ncc(F)c(Nc4ccc(OCCO)nc4)n3)ccc2O1 (racemic) [R927039, (±)-N2-[2,3-Dihydro-(N-methylamino)carbonylbenzofuran-5-yl]-5-fluoro-N4-[2-(2-hydroxyethyleneoxy)pyridin-5-yl]-2,4-pyrimidinediamine]
IC50 [1]: > 10 µM
IC50 [2]: 1.23 µM

CNC(=O)C1Cc2cc(Nc3ncc(F)c(Nc4ccc5c(c4)OC(F)(F)O5)n3)ccc2O1 (racemic) [R927041, (±)-N2-[2,3-Dihydro-(N-methylamino)carbonylbenzofuran-5-yl]-N4-(3,4-difluoromethyleneoxyphenyl)-5-fluoro-2,4-pyrimidinediamine]
IC50 [1]: > 10 µM
IC50 [2]: 0.788 µM

Nc1cccc(Nc2nc(Nc3cccc(NC(=O)CCC(C(=O)O)N4C(=O)c5ccccc5C4=O)c3)ncc2F)c1 (racemic) [R950251, (±)-N4-(3-Aminophenyl)-5-fluoro-N2-(3-(3-carboxy-3-D,L-N-phtaloylamino)propylenecarbonylaminophenyl)-2,4-pyrimidinediamine]
IC50 [1]: > 10 µM
IC50 [2]: > 10 µM

Nc1cccc(Nc2nc(Nc3cccc(NC(=O)CCC(N)C(=O)O)c3)ncc2F)c1 (racemic) [R950255, (±)-N4-(3-Aminophenyl)-5-fluoro-N2-[3-(3-carboxy-3-amino)propylenecarbonylaminophenyl]-2,4-pyrimidinediamine]
IC50 [1]: > 10 µM
IC50 [2]: 10 µM

Fc1cnc(Cl)nc1Nc1cccc(-c2nnn[nH]2)c1 [Compound R926853]
IC50 [1]: > 10 µM
IC50 [2]: > 10 µM

COC(=O)c1cc(Nc2nc(Cl)ncc2F)cc(C(F)(F)F)c1 [Compound R926861]
IC50 [1]: > 10 µM
IC50 [2]: > 10 µM

Fc1cnc(Cl)nc1Nc1ccc2c(c1)CN(c1nc(Cl)ncc1F)CC2 [Compound R926910]
IC50 [1]: > 10 µM
IC50 [2]: > 10 µM

CC(C)(C)OC(=O)N1CCc2ccc(Nc3nc(Cl)ncc3F)cc2C1 [Compound R926911]
IC50 [1]: > 10 µM
IC50 [2]: > 10 µM

Fc1cnc(Cl)nc1Nc1ccc2c(c1)CNCC2 [Compound R926912]
IC50 [1]: > 10 µM
IC50 [2]: > 10 µM

Cc1ccc(Nc2nc(Cl)ncc2F)cc1C(F)(F)F [Compound R926920]
IC50 [1]: > 10 µM
IC50 [2]: > 10 µM

CC1(C)Oc2ccc(Nc3nc(Cl)ncc3F)cc2NC1=O [Compound R940322]
IC50 [1]: > 10 µM
IC50 [2]: > 10 µM

O=C1COc2ccc(Nc3nc(Cl)ncc3F)nc2N1 [Compound R945298]
IC50 [1]: > 10 µM
IC50 [2]: > 10 µM

O=C1COc2cc(Nc3nc(Nc4cccc(O)c4)ncc3F)ccc2N1 [R908698]
IC50 [1]: > 10 µM
IC50 [2]: 1.67 µM

CNC(=O)COc1cccc(Nc2ncc(F)c(Nc3ccc4c(c3)OCC(=O)N4)n2)c1 [R908700, N4-(1,4-Benzoxazine-3-on-7-yl)-5-fluoro-N2-((N-methylacetamido-2)-3-phenoxy)-2,4-pyrimidinediamine]
IC50 [1]: > 10 µM
IC50 [2]: 1.27 µM

CNC(=O)COc1cccc(Nc2ncc(F)c(Nc3ccc4c(c3)NC(=O)CO4)n2)c1 [R908701]
IC50 [1]: 7.64 µM
IC50 [2]: 0.099 µM

CNC(=O)COc1cccc(Nc2ncc(F)c(Nc3ccc4c(c3)OCCN4C)n2)c1 [R908705, 5-Fluoro-N2-[(N-methylacetamido-2)-3-phenoxy]-N4-(N-methyl-1,4-benzoxazin-7-yl)-2,4-pyrimidinediamine]
IC50 [1]: > 10 µM
IC50 [2]: 0.801 µM

CN(C)CCOc1ccc(Nc2ncc(F)c(Nc3cccc(O)c3)n2)cc1 [R909236, N2-[4-(2-N,N-Dimethylamino)ethoxyphenyl]-5-fluoro-N4-(3-hydroxyphenyl)-2,4-pyrimidinediamine]
IC50 [1]: > 10 µM
IC50 [2]: 0.996 µM

Fc1cnc(Nc2ccc3c(c2)CCO3)nc1Nc1ccc2c(c1)CCO2 [R909237, N2,N4-Bis(dihydrobenzofuran-5-yl)-5-fluoro-2,4-pyrimidinediaminediamine]
IC50 [1]: > 10 µM
IC50 [2]: > 10 µM

O=C(COc1ccc(Nc2ncc(F)c(Nc3ccc4c(c3)OCCO4)n2)cc1)NCCO [R909239, N4-(3,4-Ethylendioxyphenyl)-5-fluoro-N2-[4-(N-2-hydroxyethylamino)carbonylmethyleneoxyphenyl]-2,4-pyrimidinediamine]
IC50 [1]: > 10 µM
IC50 [2]: 0.264 µM

CNC(=O)COc1ccc(Nc2ncc(F)c(Nc3ccc4c(c3)OCCO4)n2)cc1 [R909240, N4-(3,4-Ethylendioxyphenyl)-5-fluoro-[4-(N-methylamino)carbonylmethyleneoxyphenyl]-2,4-pyrimidinediamine]
IC50 [1]: > 10 µM
IC50 [2]: 0.262 µM

CCOC(=O)COc1cccc(Nc2ncc(F)c(Nc3ccc4c(c3)NCCO4)n2)c1 [R909242, N4-(1,4-Benzoxazin-6-yl)-N2-[3-ethoxyocarbonylmethyleneoxyphenyl]-5-fluoro-2,4-pyrimidinediamine]
IC50 [1]: > 10 µM
IC50 [2]: 0.567 µM

CNC(=O)COc1cccc(Nc2nc(Nc3ccc4c(c3)NCCO4)ncc2F)c1 [R909247, N2-(1,4-Benzoxazin-6-yl)-5-fluoro-N4-[3-(N-methylamino)carbonylmethyleneoxyphenyl]-2,4-pyrimidinediamine]
IC50 [1]: > 10 µM
IC50 [2]: 2.39 µM

CNC(=O)COc1cccc(Nc2nc(Nc3cccc4c3CCO4)ncc2F)c1 [R909249, N2-(4-Dihydrobenzofuranyl)-5-fluoro-N4-[3-(N-methylamino)carbonylmethyleneoxyphenyl]-2,4-pyrimidinediamine]
IC50 [1]: > 10 µM
IC50 [2]: > 10 µM

CC(O)CNC(=O)COc1cccc(Nc2ncc(F)c(Nc3ccc4c(c3)NCCO4)n2)c1 (stereo not shown) [R909251, N4-(1,4-Benzoxazin-6-yl)-5-fluoro-N2-[3-(N-2-hydroxypropylamino)carbonylmethyleneoxyphenyl]-2,4-pyrimidinediamine]
IC50 [1]: > 10 µM
IC50 [2]: 0.138 µM

O=C(COc1cccc(Nc2ncc(F)c(Nc3ccc4c(c3)NCCO4)n2)c1)NCCCO [R909252, N4-(1,4-Benzoxazin-6-yl)-5-fluoro-N2-[3-(N-3-hydroxypropylamino)carbonylmethyleneoxyphenyl]-2,4-pyrimidinediamine]
IC50 [1]: > 10 µM
IC50 [2]: 0.248 µM

CNC(=O)COc1cccc(Nc2nc(Nc3ccc(OCCN(C)C)cc3)ncc2F)c1 [R909253, N2-[4-(2-N,N-Dimethylaminoethyl)oxyphenyl]-5-fluoro-N4-[3-(N-methylamino)carbonylmethyleneoxyphenyl]-2,4-pyrimidinediamine]
IC50 [1]: > 10 µM
IC50 [2]: 7.96 µM

CC(C)NC(=O)COc1cccc(Nc2ncc(F)c(Nc3ccc4c(c3)NCCO4)n2)c1 [R909254, N4-(1,4-Benzoxazin-6-yl)-N2-[3-(N-isopropylamino)carbonylmethyleneoxyphenyl]-5-fluoro-2,4-pyrimidinediamine]
IC50 [1]: > 10 µM
IC50 [2]: 0.136 µM

— patent US9499493B2, “2,4-pyrimidinediamine compounds and their uses” (Rigel Pharmaceuticals, Inc., priority 2002, dated 2016)
